Tests used:
[1] = In vivo pharmacokinetic profile in rat after IV injection (ELISA)
Experimental: The rat was restrained manually at the designated time points, approximately 300 μL of blood sample was collected via jugular vein into EDTA-K2 tubes and subsequently centrifuged at 4° C. and 1500 g for 10 min to obtain plasma samples.
Standard curve was prepared by the following procedure. Duplicate standard points were prepared by serially diluting Free SST Stock (1 mg/mL) with diluent buffer to produce 5, 2.5, 1.25, 0.625, 0.313, 0.156, 0.078 and 0.039 ng/mL solutions.
Standard curve was prepared by the following procedure. Duplicate standard points were prepared by serially diluting SST fusion protein (2.42 mg/mL) with pooled rat plasma to produce 225, 112.5, 56.2, 28.1, 14.1, 7.03, 3.51 and 1.76 ng/mL solutions.
ELISA assay has been performed as described in Example 5-3.

[2] = biological target: human somatostatin sst2 receptor (human) (UniProt P30874); test: cell-based or functional assay
[3] = rat, intravenous, SST 0.02 mg/kg, SST fusion protein 27.1 mg/kg

UniProt P30874, sequence (P30874 whole entry, the tested form may be a part): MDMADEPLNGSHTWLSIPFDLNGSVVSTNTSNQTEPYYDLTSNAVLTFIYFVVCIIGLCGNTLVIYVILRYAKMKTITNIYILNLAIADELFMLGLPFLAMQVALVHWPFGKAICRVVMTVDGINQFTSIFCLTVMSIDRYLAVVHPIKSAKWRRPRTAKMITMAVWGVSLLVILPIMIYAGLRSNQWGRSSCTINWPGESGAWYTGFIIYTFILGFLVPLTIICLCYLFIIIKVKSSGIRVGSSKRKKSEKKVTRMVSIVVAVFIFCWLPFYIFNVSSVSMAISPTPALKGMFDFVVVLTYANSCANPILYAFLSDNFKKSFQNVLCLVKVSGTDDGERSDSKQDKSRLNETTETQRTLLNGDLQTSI

EC50 values of the inhibition of cAMP production [2] [nM] | Compound | clinical signs after injection ([1]; male Sprague Dawley rats, tail vein injection, SST 0.02 mg/kg, SST fusion protein 27.1 mg/kg) | level at 1 min ([1]; male, Sprague Dawley, in vivo, rat, IV 0.02 mg/kg, sampling time 1 min, read-out: Plasma SST concentration, Mean) [ng/mL] | level at 2 min ([1]; male, Sprague Dawley, in vivo, rat, IV 0.02 mg/kg, sampling time 2 min, read-out: Plasma SST concentration, Mean) [ng/mL] | level at 4 min ([1]; male, Sprague Dawley, in vivo, rat, IV 0.02 mg/kg, sampling time 4 min, read-out: Plasma SST concentration, Mean) [ng/mL] | level at 0.1 h ([1]; male, Sprague Dawley, in vivo, rat, IV 0.02 mg/kg, sampling time 6 min, read-out: Plasma SST concentration, Mean) [ng/mL] | level at 8 min ([1]; male, Sprague Dawley, in vivo, rat, IV 0.02 mg/kg, sampling time 8 min, read-out: Plasma SST concentration, Mean) [ng/mL] | AUC(0-inf) ([1]; male, Sprague Dawley, in vivo, rat, intravenous, SST 0.02 mg/kg, SST fusion protein 27.1 mg/kg, read-out: AUC0-inf, Mean (converted)) [ng·h/mL] | AUC(0-t) ([1]; male, Sprague Dawley, in vivo, rat, intravenous, SST 0.02 mg/kg, SST fusion protein 27.1 mg/kg, read-out: AUC0-t, Mean (converted)) [ng·h/mL] | clearance ([1]; male, Sprague Dawley, in vivo, rat, intravenous, SST 0.02 mg/kg, SST fusion protein 27.1 mg/kg, read-out: CL, Mean) [mL/min/kg] | Vd ([1]; male, Sprague Dawley, in vivo, rat, intravenous, SST 0.02 mg/kg, SST fusion protein 27.1 mg/kg, read-out: Vdss, Mean) [L/kg] | Plasma SST concentration, Mean ([1]; rat, IV 0.02 mg/kg, sampling time 0 min) [ng/mL] | AUMC0-inf, Mean [1, 3] [mg · h^2/mL] | AUMC0-t, Mean [1, 3] [mg · h^2/mL] | MRTIV, Mean [1, 3] [h]
– | C[C@H](N)C(=O)NCC(=O)N[C@H]1CSSC[C@@H](C(=O)O)NC(=O)[C@H](CO)NC(=O)[C@H]([C@@H](C)O)NC(=O)[C@H](Cc2ccccc2)NC(=O)[C@H]([C@@H](C)O)NC(=O)[C@H](CCCCN)NC(=O)[C@H](Cc2c[nH]c3ccccc23)NC(=O)[C@H](Cc2ccccc2)NC(=O)[C@H](Cc2ccccc2)NC(=O)[C@H](CC(N)=O)NC(=O)[C@H](CCCCN)NC1=O [Free SST] | no negative clinical signs were observed | 7.13 | 4.95 | 4.3 | 1.07 | 2.95 | 0.73 | 0.483 | 510 | 2.19 | 0 | 173 | 55.9 | 4.1
0.041 | Octreotide (peptide) | – | – | – | – | – | – | – | – | – | – | – | – | – | –
